# Data reported in article PMC10726367 (Journal of Medicinal Chemistry, 2023).
# “Also recorded” adds a separate entry of the source.
# Experiments:
# SERCA2a [1] = molecular target: T1, SERCA2a (Mus musculus, UniProt O55143); assay: Caffeine-induced Ca2+ release assay in HL-1 cells (FLIPR Calcium 6); format: cell-based; settings: for SERCA2a HL-1 effect class: 10 μM (25 μM for 11d), caffeine assay; for effect on caffeine-induced Ca2+ release (in words): 2 h incubation at various concentrations
# T1 construct: host or cells: HL-1 cells
# Excerpt: It is known that caffeine stimulates the release of calcium from intracellular stores in cells by acting as a RyR activator.[39],[40] The binding site for caffeine is located on the cytosolic side of the protein between the C-terminal and the S2S3 domain.[41] When caffeine binds to RyR2, it interacts with specific amino acids on the protein, which causes conformational changes in the protein’s structure.[42] This opens the RyR2 channel pore, enabling the mass release of calcium ions from the SR. We investigated the effect of caffeine-induced Ca^2+ release in HL-1 cells treated with cytosolic Ca^2+ indicator FLIPR Calcium 6 (Molecular Devices). The HL-1 cell line is an immortalized mouse cardiomyocyte cell line commonly used to study the effects of various substances on cell function.[43] If the tested compound modulates SERCA2a activation, it will cause an increase in Ca^2+ concentration in the SR and the effect of a fixed dose of caffeine on SR Ca^2+ release will be potentiated by increasing doses of a proposed SERCA activator.[26] As a positive control, we used CDN1163, a small-molecule SERCA activator, which is at present in a clinical trial due to its potential therapeutic use for certain cardiac conditions.[27]
# HL-1 cells (50,000 per well) were cultivated for 24 h in black-walled, clear-bottom 96-well microplates (Corning, Amsterdam, The Netherlands) covered with fibronectin/gelatin (Merck KGaA, Darmstadt, Germany) in a humidified incubator at 37 °C and 5% CO2.
# Changes in Ca^2+ concentration were measured on a multiwell plate reader TECAN Spark 20 M using a FLIPR 6 Calcium Assay Kit from Molecular Devices (Molecular Devices LLC, München, Germany) at 37 °C. The 1000 × stock solutions of the test compounds were prepared in DMSO. A 100 μL solution of test compound in Tyrode’s solution containing FLIPR Calcium 6 dye was incubated for 2 h at 37 °C and 5% CO2 in a humidified incubator. The time courses were recorded in each well. Fluorescence was evoked at 485 nm excitation wavelength and read out in a bottom-read mode at 525 nm. Data were recorded every 2 s, exposure −20 flashes, excitation bandwidth −10 nm, emission bandwidth −15 nm. To initiate Ca^2+ influx, 25 μL of 50 mM caffeine solution in Tyrode’s solution containing 2 mM CaCl2 was injected in each well (speed 100 μL/s) at the 10 s time point, resulting in 10 mM final concentration in the well. The differences between the caffeine-induced peak minus basal fluorescence, ΔFCaff, were taken into account for the analysis. The Tyrode’s solution +0.1 v/v% DMSO was used as a control. The dose–response curves were calculated using the software package GraphPad Prism version 8.3.1. All data are presented as mean ± SD from eight independent experiments. Y = bottom + (top – bottom)/(1 + 10^((LogEC50 – X) × HillSlope)) was used, where HillSlope describes the steepness of the curve and top and bottom are plateaus in the units of the Y axis.
# SERCA2a [2] = molecular target: T1, SERCA2a; assay: NADH-coupled ATPase assay on mouse heart ventricular SR microsomes (mouse SR); format: biochemical; settings: for SERCA2a mouse SR effect class: 10 μM (3 μM for 12b per Figure 6c), microsomal membrane vesicles; for SERCA2a ATPase activity in mouse SR vesicles (in words): 10 μM, vs 0.1 v/v% DMSO
# Excerpt: Cyclopropanol derivatives have a variety of biological activities including enzyme inhibition and antibacterial and anticancer properties.[47]−[50] However, there have been no published reports on cyclopropanol-containing molecules specifically acting as modulators of RyRs and/or activators of SERCA. To investigate more directly whether the compounds influence the SERCA2 activity, we performed nicotinamide adenine dinucleotide (NADH) fluorescence-coupled ATPase assay according to Radnai et al.[51] In this assay, the change in NADH coenzyme fluorescence reflects the level of the consumption of ATP, which we took as indicator of SERCA2 activity.[51],[52] ATP hydrolysis by SERCA2 is required to pump calcium ions into the SR. We assume that a higher rate of ATP hydrolysis reflects an increase in SERCA2 ATPase activity that leads to a greater pumping of calcium ions into the SR.
# We observed the rate of NADH oxidation, which is coupled to ATP hydrolysis, by measuring changes in NADH intrinsic fluorescence over time after ATP injection into microsomal membranes enriched in SR vesicles isolated from mouse heart ventricles (mouse SR) and HEK-293T cells (HEK-293 ER). The presence of SERCA2 in mouse SR and HEK-293 ER of isolated microsomal vesicles was confirmed by Western blotting (Figures S5 and S6; for details see Experimental Section). The NADH fluorescence decrease was recorded on a multiwell plate reader TECAN Spark 20M (λex = 380 nm, λem = 470 nm). […] Consistent with our previous experiment on HL-1 cells, we observed a strong decrease in NADH fluorescence reflecting an increase in SERCA2a activity in SR microsomes derived from mouse heart ventricles (n = 3–5) in solutions containing the tested compounds compared to the 0.1 v/v% DMSO sample (Figure 6). […] Similar results were obtained in cardiac SR vesicles from the mouse heart. […] This difference may indicate isoform-specific effects of our compound in HEK-293 cells expressing mostly SERCA2b[53] versus mouse SR vesicles containing mostly SERCA2a.[54] In both experiments, we used CDN1163 as a positive control.
# All animal procedures were performed in accordance with Directive 2010/63/EU of the European Parliament and the Council on the protection of animals used in research as well as Animal Welfare Law of the Federal Republic of Germany (Tierschutzgesetz der Bundesrepublik Deutschland, TierSchG). […] All mice were housed with a 12 h light/dark cycle with free access to food and water. Adult C57BL/6N mice of both genders were sedated with isoflurane in a sealed container and quickly euthanized by cervical dislocation. Heart ventricles were taken out instantly, washed with ice-cold PBS plus complete, cut into smaller pieces, and snap frozen in liquid nitrogen straight away.
# Lysis buffer thawed on ice (10 mM EDTA, 10 mM HEPES, cOmplete, pH 7.4) was added, and the ventricles were homogenized with a Qiagen Cellruptor for 20 s. On ice, an equal volume of restoration buffer (500 mM sucrose, 10 mM HEPES, cOmplete, pH7.2) was added and briefly mixed. The homogenate was centrifuged at 10^4 × g for 20 min at 4 °C. The supernatant was collected and centrifuged again for another hour (10^5 × g at 4 °C). Then, the pellet was carefully resuspended in resuspension buffer (250 mM sucrose, 10 mM HEPES, cOmplete, pH 7.2) on ice by pipetting the solution up and down until fully dissolved. The obtained solution was diluted to a protein concentration of 5 μg/μL with the resuspension buffer, and the aliquots were snap frozen in liquid nitrogen and then stored at −80 °C until usage.
# To determine whether new compounds could increase the SERCA2 activity, HEK-293 microsomes (40–150 μg of total protein) or mouse ventricular microsomes (1–20 μg of total protein) were diluted in 100 μL of the assay buffer used for measurement of SERCA activity (described below) and incubated at room temperature for 5 min prior to the experiments. […]
# T1 sequence (O55143 1-998 isoform O55143-2): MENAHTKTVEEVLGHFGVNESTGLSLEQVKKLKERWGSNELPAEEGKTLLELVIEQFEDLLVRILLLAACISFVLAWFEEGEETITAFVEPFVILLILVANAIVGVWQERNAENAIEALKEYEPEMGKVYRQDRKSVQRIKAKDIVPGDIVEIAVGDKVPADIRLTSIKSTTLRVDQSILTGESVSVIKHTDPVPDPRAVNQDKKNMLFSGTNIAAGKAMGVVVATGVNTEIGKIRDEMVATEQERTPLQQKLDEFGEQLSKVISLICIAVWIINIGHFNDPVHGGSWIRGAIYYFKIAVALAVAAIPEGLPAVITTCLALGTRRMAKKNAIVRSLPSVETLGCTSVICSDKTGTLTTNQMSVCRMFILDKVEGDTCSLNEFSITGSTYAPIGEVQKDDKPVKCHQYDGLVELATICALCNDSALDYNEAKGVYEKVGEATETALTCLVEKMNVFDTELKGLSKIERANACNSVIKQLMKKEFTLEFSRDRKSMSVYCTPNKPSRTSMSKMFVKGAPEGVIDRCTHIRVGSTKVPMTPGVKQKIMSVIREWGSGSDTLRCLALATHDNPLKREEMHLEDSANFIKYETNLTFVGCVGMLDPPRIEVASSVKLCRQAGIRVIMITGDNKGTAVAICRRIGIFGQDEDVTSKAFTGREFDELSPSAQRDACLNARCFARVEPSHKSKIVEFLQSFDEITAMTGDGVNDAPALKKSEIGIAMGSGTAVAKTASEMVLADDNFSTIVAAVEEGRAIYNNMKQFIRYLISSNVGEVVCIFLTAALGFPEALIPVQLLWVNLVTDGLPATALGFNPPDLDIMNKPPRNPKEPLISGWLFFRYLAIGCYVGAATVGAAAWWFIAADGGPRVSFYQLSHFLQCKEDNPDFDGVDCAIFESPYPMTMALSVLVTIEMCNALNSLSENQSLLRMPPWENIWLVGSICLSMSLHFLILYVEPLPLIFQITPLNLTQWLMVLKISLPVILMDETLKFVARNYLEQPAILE
SMILES,SERCA2a HL-1 effect class (SERCA2a [1]),"effect on caffeine-induced Ca2+ release (in words) (SERCA2a [1]; HL-1 cells, 10 mM caffeine)",SERCA2a mouse SR effect class (SERCA2a [2]),SERCA2a ATPase activity in mouse SR vesicles (in words) (SERCA2a [2]),"EC50 (SERCA2a [1]; HL-1 cells, 10 mM caffeine, value, interval) [µM]","EC50 (SERCA2a [2]; ATPase activity, value, interval) [µM]"
"COc1ccc2c(c1)CN(CCCCNCCCCC1(O)CC1)CCS2 [11a, 1-(4-((4-(7-Methoxy-2,3-dihydrobenzo[1,4-f]thiazepin-4(5H)-yl)butyl)amino)butyl)cyclopropan-1-ol]",+,most potent,+,–,–,–
"COc1ccc(OCCCNCCCCC2(O)CC2)cc1 [11b, 1-(4-((3-(4-Methoxyphenoxy)propyl)amino)butyl)cyclopropan-1-ol]",++,–,+,–,–,–
"COc1ccc(SCCCNCCCCC2(O)CC2)cc1 [11c, 1-(4-((3-((4-Methoxyphenyl)thio)propyl)amino)butyl)cyclopropan-1-ol]",++,–,+++,–,–,–
"COc1ccc2c(c1)CN(CCCCC1(O)CC1)CCS2 [11d, 1-(4-(7-Methoxy-2,3-dihydrobenzo[1,4-f]thiazepin-4(5H)-yl)butyl)cyclopropan-1-ol]",+,least efficacious; also recorded: no saturation effect at concentrations up to 50 μM; also recorded: slight,++,moderate,–,–
"COc1ccc2c(c1)CN(CCCCN(CCCCC1(O)CC1)CCCCC1(O)CC1)CCS2 [12a, 1,1′-(((4-(7-Methoxy-2,3-dihydrobenzo[1,4-f]thiazepin-4(5H)-yl)butyl)azanediyl)bis(butane-4,1-diyl))bis(cyclopropan-1-ol)]",++,–,+++,–,9.2,0.383
"COc1ccc(SCCCN(CCCCC2(O)CC2)CCCCC2(O)CC2)cc1 [12c, 1,1′-(((3-((4-Methoxyphenyl)thio)propyl)azanediyl)bis(butane-4,1-diyl))bis(cyclopropan-1-ol)]",+++ and ++,most efficacious; also recorded: stronger activating effect on caffeine-induced Ca^2+ release at concentrations above 10 μM,+,–,–,–
"COc1ccc2c(c1)CN(Cc1ccc(C(=O)O)cc1)CCS2 [ARM210, reference compound]",+,clear concentration-dependent effect,++,improvement of ATPase activity,–,–
